For one test, the system named is saphenous artery rings. As to the kind of experiment: Vasorelaxant effect in vitro (phenylephrine-contracted artery rings). In kind it is cell-based, Rabbits. The note with it: Oryctolagus cuniculus, rabbit saphenous artery rings, contraction induced by phenylephrine. The procedure:
Rabbits are anesthetized and sacrificed by intravenous injection of thiopental sodium (about 50 mg/kg) and exsanguinated. The saphenous artery is removed and divided into rings 3 mm wide. The rings are mounted singly on in each case a pair of triangular hooks open at the end and made of 0.3 mm-thick special wire (Remanium®). Each ring is placed under an initial tension in 5 ml organ baths with Krebs-Henseleit solution which is at 37° C., is gassed with 95% O2/5% CO2 and has the following composition: NaCl 119 mM; KCl 4.8 mM; CaCl2×2H2O 1 mM; MgSO4×7H2O 1.4 mM; KH2PO4 1.2 mM; NaHCO3 25 mM; glucose 10 mM; bovine serum albumin 0.001%. The force of contraction is detected with Statham UC2 cells, amplified and digitized via A/D converters (DAS-1802 HC, Keithley Instruments, Munich) and recorded in parallel on chart recorders. Contractions are induced by addition of phenylephrine.
After several (generally 4) control cycles, the substance to be investigated is added in each further run in increasing dosage, and the height of the contraction achieved under the influence of the test substance is compared with the height of the contraction reached in the last preceding run. The concentration necessary to reduce the contraction reached in the preceding control by 50% is calculated from this (IC50). The standard application volume is 5 μl. The proportion of DMSO in the bath solution corresponds to 0.1%.
`O=C(O)c1ccc(CCC(/C=C/c2ccccc2OCc2cc(C(F)(F)F)cc(C(F)(F)F)c2)CCCCc2nnn[nH]2)cc1` (centres unmarked) [Example 39]: the midpoint of inhibition, the IC50, lay at 150 nM.
The same measure, in the same setting: the figure for `CC(C)(C)c1ccc(COc2ccccc2/C=C/C(CCc2ccc(-c3nnn[nH]3)cc2)Cc2ccc(C(=O)O)cc2)c(Cl)c1` (single isomer, unassigned) [Example 3, 4-((3E)-4-{2-[(4-tert-Butyl-2-chlorobenzyl)oxy]phenyl}-2-{2-[4-(1H-tetrazol-5-yl)phenyl]ethyl}but-3-en-1-yl)benzoic acid] is 682 nM; for `COc1ccc(CCc2ccc(F)cc2/C=C\C(CCc2ccc(C(=O)O)cc2)Cc2ccc(-c3nnn[nH]3)cc2)cc1` (centres unmarked) [Example 17, 4-{(4Z)-5-{5-Fluoro-2-[2-(4-methoxyphenyl)ethyl]phenyl}-3-[4-(1H-tetrazol-5-yl)benzyl]pent-4-en-1-yl}benzoic acid] it is 5800 nM; for `CC(C)(C)c1ccc(COc2ccccc2/C=C/C(CCCCC(=O)O)CCc2ccc(-c3nnn[nH]3)cc2)cc1` (single isomer, unassigned) [Example 29, (7E)-8-{2-[(4-tert-Butylbenzyl)oxy]phenyl}-6-{2-[4-(1H-tetrazol-5-yl)phenyl]ethyl}oct-7-enoic acid] it is 1990 nM.
On the same count and under the same terms, the figure for `O=C(O)c1ccc(CCC(/C=C/c2ccccc2OCc2ccc(-c3ccc(C(F)(F)F)cc3)cc2)Cc2ccc(-c3nnn[nH]3)cc2)cc1` (centres unmarked) [Example 21, 4-[(4E)-3-[4-(1H-Tetrazol-5-yl)benzyl]-5-(2-{[4′-(trifluoromethyl)biphenyl-4-yl]-methoxy}phenyl)pent-4-en-1-yl]benzoic acid] is 372 nM; for `O=C(O)c1ccc(CCC(/C=C/c2ccccc2OCCCCCc2ccccc2)Cc2ccc(-c3nnn[nH]3)cc2)cc1` (single isomer, unassigned) [Example 14, 4-{(4E)-5-{2-[(5-Phenylpentyl)oxy]phenyl}-3-[4-(1H-tetrazol-5-yl)benzyl]pent-4-en-1-yl}benzoic acid] it is 1320 nM.
On the same count and under the same terms, the figure for `CC(C)(C)c1ccc(COc2ccccc2/C=C/C(CCCCC(=O)O)Cc2ccc(-c3nnn[nH]3)cc2)cc1` (single isomer, unassigned) [Example 36, (7E)-8-{2-[(4-tert-Butylbenzyl)oxy]phenyl}-6-[4-(1H-tetrazol-5-yl)benzyl]oct-7-enoic acid] is 760 nM; for `COc1ccc(CCc2ccc(F)cc2/C=C/C(CCc2ccc(C(=O)O)cc2)Cc2ccc(-c3nnn[nH]3)cc2)cc1` (centres unmarked) [Example 18, 4-{(4E)-5-{5-Fluoro-2-[2-(4-methoxyphenyl)ethyl]phenyl}-3-[4-(1H-tetrazol-5-yl)benzyl]pent-4-en-1-yl}benzoic acid] it is 890 nM; for `O=C(O)c1ccc(CCC(/C=C/c2ccccc2OCc2ccc(OC(F)(F)F)cc2)CCCCc2nnn[nH]2)cc1` (centres unmarked) [Example 38] it is 567 nM.

The test is the same for the next values; noted with them: rabbit saphenous artery rings, contraction induced by phenylephrine.
For `CC(C)(C)c1ccc(COc2ccccc2/C=C/C(CCc2ccc(C(=O)O)cc2)Cc2ccc(-c3nnn[nH]3)cc2)cc1` (single isomer, unassigned) [Example 23, 4-{(4E)-5-{2-[(4-tert-Butylbenzyl)oxy]phenyl}-3-[4-(1H-tetrazol-5-yl)benzyl]pent-4-en-1-yl}benzoic acid], the IC50 – broadly, the concentration needed to halve the response being measured – turned out to be 3890 nM.
Take `CC(C)(C)c1ccc(COc2ccccc2/C=C/C(CCCCc2nnn[nH]2)CCc2ccc(C(=O)O)cc2)cc1` (single isomer, unassigned) [Example 26, 4-[3-((E)-2-{2-[(4-tert-Butylbenzyl)oxy]phenyl}vinyl)-7-(1H-tetrazol-5-yl)heptyl]benzoic acid]: the IC50 amounted to 559 nM.
Same read-out and setting: the figure for `CC(C)(C)c1ccc(COc2ccccc2/C=C/C(CCc2ccc(-c3nnn[nH]3)cc2)Cc2ccc(C(=O)O)cc2)cc1` (single isomer, unassigned) [Example 5, 4-((3E)-4-{2-[(4-tert-Butylbenzyl)oxy]phenyl}-2-{2-[4-(1H-tetrazol-5-yl)phenyl]ethyl}but-3-en-1-yl)benzoic acid] is 2510 nM.
In turn, `CC(C)(C)c1ccc(COc2ccccc2/C=C/C(CCc2ccc(C(=O)O)cc2)Cc2ccc(-c3nnn[nH]3)cc2)cc1` (single isomer, unassigned) [Example 24, 4-{(4E)-5-{2-[(4-tert-Butylbenzyl)oxy]phenyl}-3-[4-(1H-tetrazol-5-yl)benzyl]pent-4-en-1-yl}benzoic acid] yielded an IC50 of 102 nM.
As for `CC(C)(C)c1ccc(COc2ccccc2/C=C/C(CCCCc2nnn[nH]2)CCc2ccc(C(=O)O)cc2)cc1` (single isomer, unassigned) [Example 27, 4-[3-((E)-2-f{2-[(4-tert-Butylbenzyl)oxy]phenyl}vinyl)-7-(1H-tetrazol-5-yl)heptyl]benzoic acid], the IC50 amounted to 9.7 nM.

For a further test, the target named is T1, Heme-free sGC (recombinant soluble guanylate cyclase) (Rattus norvegicus, UniProt P20595).
T1 construct: made in house
T1 sequence (P20595 1-619): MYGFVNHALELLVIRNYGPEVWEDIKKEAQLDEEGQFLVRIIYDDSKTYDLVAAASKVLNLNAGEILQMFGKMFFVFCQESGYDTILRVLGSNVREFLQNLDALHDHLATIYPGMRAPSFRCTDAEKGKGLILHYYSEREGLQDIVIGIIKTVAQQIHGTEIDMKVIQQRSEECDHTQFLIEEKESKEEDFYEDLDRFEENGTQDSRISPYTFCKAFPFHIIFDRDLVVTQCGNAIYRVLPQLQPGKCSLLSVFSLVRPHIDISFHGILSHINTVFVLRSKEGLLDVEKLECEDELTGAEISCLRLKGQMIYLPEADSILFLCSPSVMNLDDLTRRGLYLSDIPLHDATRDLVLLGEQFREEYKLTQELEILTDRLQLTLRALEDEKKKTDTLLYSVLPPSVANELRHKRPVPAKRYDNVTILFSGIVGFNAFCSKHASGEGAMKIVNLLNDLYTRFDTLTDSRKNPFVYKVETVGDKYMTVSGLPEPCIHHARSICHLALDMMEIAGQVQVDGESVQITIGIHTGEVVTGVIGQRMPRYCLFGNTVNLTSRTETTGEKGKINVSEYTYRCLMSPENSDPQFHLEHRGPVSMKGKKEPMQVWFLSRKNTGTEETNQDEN
T1 sequence (P19686 1-690 partner): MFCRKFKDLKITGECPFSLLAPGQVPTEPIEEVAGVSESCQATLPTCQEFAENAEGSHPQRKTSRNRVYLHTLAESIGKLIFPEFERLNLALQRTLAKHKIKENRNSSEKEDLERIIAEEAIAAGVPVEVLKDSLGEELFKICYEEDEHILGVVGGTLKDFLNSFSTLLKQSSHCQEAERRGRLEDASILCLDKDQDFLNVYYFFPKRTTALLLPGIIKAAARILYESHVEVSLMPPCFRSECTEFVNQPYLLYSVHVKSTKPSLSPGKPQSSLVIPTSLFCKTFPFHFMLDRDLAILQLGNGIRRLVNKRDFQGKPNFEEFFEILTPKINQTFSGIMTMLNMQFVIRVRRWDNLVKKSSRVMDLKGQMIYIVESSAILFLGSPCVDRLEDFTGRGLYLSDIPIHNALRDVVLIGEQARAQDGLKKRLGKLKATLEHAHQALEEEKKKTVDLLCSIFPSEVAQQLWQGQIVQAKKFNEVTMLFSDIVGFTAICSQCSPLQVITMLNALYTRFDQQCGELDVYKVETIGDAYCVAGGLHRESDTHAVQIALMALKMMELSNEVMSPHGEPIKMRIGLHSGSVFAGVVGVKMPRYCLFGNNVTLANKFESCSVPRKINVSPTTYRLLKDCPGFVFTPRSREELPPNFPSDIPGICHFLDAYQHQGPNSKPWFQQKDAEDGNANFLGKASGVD
As to the kind of experiment: Stimulation of recombinant soluble guanylate cyclase (sGC) in vitro, heme-free enzyme. The note with it: 10 μM ODQ, 0.0 μM Example 6. In kind it is biochemical. The procedure:
Investigations on the stimulation of recombinant soluble guanylate cyclase (sGC) by the compounds according to the invention with and without sodium nitroprusside, and with and without the heme-dependent sGC inhibitor 1H-1,2,4-oxadiazole-(4,3a)-quinoxalin-1-one (ODQ) are carried out by the method described in detail in the following reference: M. Hoenicka, E. M. Becker, H. Apeler, T. Sirichoke, H. Schroeder, R. Gerzer and J.-P. Stasch, “Purified soluble guanylyl cyclase expressed in a baculovirus/Sf9 system: Stimulation by YC-1, nitric oxide, and […]”, J. Mol. Med. 77 (1999), 14-23. The heme-free guanylate cyclase is obtained by adding Tween 20 to the sample buffer (0.5% in the final concentration).
(§1) The activation of sGC by a test substance is reported as n-fold stimulation of the basal activity.
Consider `O=c1onc2cnc3ccccc3n12` [ODQ, 1H-1,2,4-oxadiazole-(4,3a)-quinoxalin-1-one, reference compound], for which the “Stimulation (n-fold) Heme-free sGC with ODQ alone” value came out at 1.2 n-fold.

The next test addresses T2, Heme-containing sGC (recombinant soluble guanylate cyclase) (Rattus norvegicus, UniProt P20595).
T2 construct: made in house
T2 sequence (P20595 1-619): T1 sequence (P20595 1-619)
T2 sequence (P19686 1-690 partner): T1 sequence (P19686 1-690 partner)
Put plainly: Stimulation of recombinant soluble guanylate cyclase (sGC) in vitro, heme-containing enzyme. The format is biochemical. The note with it: 0.1 μM DEA/NO, 0.0 μM Example 6.
Excerpt: Hoenicka, E. M. Becker, H. Apeler, T. Sirichoke, H. Schroeder, R. Gerzer and J.-P. Stasch, “Purified soluble guanylyl cyclase expressed in a baculovirus/Sf9 system: Stimulation by YC-1, nitric oxide, and carbon oxide”, J. Mol. Med. 77 (1999), 14-23. The heme-free guanylate cyclase is obtained by adding Tween 20 to the sample buffer (0.5% in the final concentration).
as §1
`CCN(CC)[N+]([O-])=NO` [DEA/NO, 2-(N,N-diethylamino)diazenolate 2-oxide, reference compound]: the “Stimulation (n-fold) Heme-containing sGC by DEA/NO alone” value is on record as 64.1 n-fold.

Staying with this test, now noted: 10 μM ODQ, 0.0 μM Example 6.
Regarding `O=c1onc2cnc3ccccc3n12` [ODQ, 1H-1,2,4-oxadiazole-(4,3a)-quinoxalin-1-one, reference compound], the “Stimulation (n-fold) Heme-containing sGC with ODQ alone” value is on record as 2.4 n-fold.

Values taken from patent US8183271B2, “Tetrazole derivatives and their use for the treatment of cardiovascular diseases” (Bayer Intellectual Property GmbH, priority 2005, dated 2012).
